This passage reports IC50 results from patent publication US20240148744A1 (Celgene Corporation, priority 2021, published 2024).

Structures are written as SMILES.

For the assay, the system named is Onchocerca gutturosa adult male worms. The experiment in a line: Onchocerca gutturosa in vitro screening model: adult worm motility score and MTT/formazan viability. Type of assay: cell-based. Conditions: read-out: O. gutt Activity class.
With `O=S(=O)(Nc1cc(C2CCCCC2)cc2cccnc12)c1ccccn1` [Compound 131, N-(6-cyclo-hexylquinolin-8-yl)pyridine-2-sulfonamide], the IC50 was in the range of 500 to 5000 nM.
The value for `Cc1cc(NS(=O)(=O)c2ccccn2)c2ncccc2c1` [Compound 132, N-(6-methyl-quinolin-8-yl)pyridine-2-sulfonamide] was 200 to 500 nM.
The value for `Cn1ccnc1S(=O)(=O)Nc1ccc(F)c2cccnc12` [Compound 133, N-(5-fluoro-quinolin-8-yl)-1-methyl-1H-imidazole-2-sulfonamide] was < 200 nM; that for `Cn1ccnc1S(=O)(=O)Nc1cc(F)cc2cccnc12` [Compound 134, N-(6-fluoro-quinolin-8-yl)-1-methyl-1H-imidazole-2-sulfonamide] was < 200 nM.
The value for `O=S(=O)(Nc1cc(F)cc2cccnc12)c1ccccn1` [Compound 135, N-(6-fluoro-quinolin-8-yl)-pyridine-2-sulfonamide] was 500 to 5000 nM; that for `Cc1ccc(S(=O)(=O)Nc2cc(F)c(F)c3cccnc23)cc1` [Compound 136, N-(5,6-difluoroquin-olin-8-yl)-4-methylben-zenesulfon-amide] was 200 to 500 nM; that for `Cc1ccc(NS(=O)(=O)c2ccccn2)c2ncccc12` [Compound 137, N-(5-methyl-quinolin-8-yl)pyridine-2-sulfonamide] was < 200 nM.
Consider `Cc1ccc(S(=O)(=O)Nc2cc(C(F)(F)F)cc3cccnc23)cc1` [Compound 138, 4-methyl-N-(6-(trifluoro-methyl)quin-olin-8-yl)-benzene-sulfonamide], for which the IC50 is 200 to 500 nM.
`O=S(=O)(Nc1c(Cl)cc(N2CCOCC2)c2cccnc12)c1ncccc1C1CC1` [Compound 139, N-(7-chloro-5-morpholino-quinolin-8-yl)-3-cyclopropyl-pyridine-2-sulfonamide]: the IC50 is < 200 nM.
To `COc1ccc2cccnc2c1NS(=O)(=O)c1ncccc1C1CC1` [Compound 141, 3-cyclopropyl-N-(7-methoxy-quinolin-8-yl)-pyridine-2-sulfonamide] belongs < 200 nM; to `O=S(=O)(Nc1cccc2cccnc12)c1cccc(-c2ccccc2)n1` [Compound 161, 6-phenyl-N-(quinolin-8-yl)pyridine-2-sulfonamide], 500 to 5000 nM; to `N#Cc1cccc(S(=O)(=O)Nc2cccc3cccnc23)n1` [Compound 162, 6-cyano-N-(quinolin-8-yl)pyridine-2-sulfonamide], 500 to 5000 nM.
As for `O=S(=O)(Nc1cccc2cccnc12)c1cnc(-c2ccccn2)s1` [Compound 170, 2-(pyridin-2-yl)-N-(quinolin-8-yl)thiazole-5-sulfonamide], the IC50 was < 200 nM.
Take `O=S(=O)(Nc1cccc2cccnc12)c1ccc(-c2cnco2)nc1` [Compound 172, 6-(oxazol-5-yl)-N-(quinolin-8-yl)pyridine-3-sulfonamide]: the IC50 fell in the range of 500 to 5000 nM.
To `Cc1nc(C(F)(F)F)ccc1S(=O)(=O)Nc1cccc2cccnc12` [Compound 173, 2-methyl-N-(quinolin-8-yl)-6-(trifluoromethyl) pyridine-3-sulfonamide] belongs 500 to 5000 nM; to `Cc1nc(S(=O)(=O)Nc2cccc3cccnc23)c(C#N)c(C)c1Cl` [Compound 175, 5-chloro-3-cyano-4,6-dimethyl-N-(quinolin-8-yl)pyridine-2-sulfonamide], 200 to 500 nM; to `Cn1nc(N2CCOCC2)cc1S(=O)(=O)Nc1cccc2cccnc12` [Compound 192, 1-methyl-3-morpholino-N-(quinolin-8-yl)-1H-pyrazole-5-sulfonamide], 500 to 5000 nM.
To `Cc1cccnc1S(=O)(=O)Nc1cncc2cccnc12` [Compound 194, 3-methyl-N-(1,6-naphthyridin-8-yl)pyridine-2-sulfonamide] belongs 200 to 500 nM.
To `O=S(=O)(Nc1ccnc2cccnc12)c1cc(C2CC2)ccn1` [Compound 195] belongs < 200 nM.
As for `Cc1cnc(S(=O)(=O)Nc2cccc3cccnc23)nc1` [Compound 198, 5-methyl-N-(quinolin-8-yl)pyrimidine-2-sulfonamide], the IC50 was 200 to 500 nM.
To `O=S(=O)(Nc1cccc2cccnc12)c1ccncn1` [Compound 199, N-(quinolin-8-yl)pyrimidine-4-sulfonamide] belongs 500 to 5000 nM.
To `O=S(=O)(Nc1cccc2cccnc12)c1ncccn1` [Compound 200, N-(quinolin-8-yl)pyrimidine-2-sulfonamide] belongs < 200 nM; to `O=S(=O)(Nc1cccc2cccnc12)c1nnc2ccccn12` [Compound 201, N-(quinolin-8-yl)-[1,2,4]triazolo [4,3-a]pyridine-3-sulfonamide], 500 to 5000 nM.
To `O=S(=O)(Nc1cccc2cncnc12)c1ccccn1` [Compound 202, N-(quinazolin-8-yl)pyridine-2-sulfonamide] belongs 500 to 5000 nM.
As for `O=S(=O)(Nc1ccnc2cccnc12)c1ccccn1` [Compound 203, N-(1,5-naphthyridin-4-yl)pyridine-2-sulfonamide], the IC50 lay within 500 to 5000 nM.
Consider `O=S(=O)(Nc1cccc2cccnc12)c1c[nH]c2ncccc12` [Compound 204, N-(quinolin-8-yl)-1H-pyrrolo[2,3-b]pyridine-3-sulfonamide], for which the IC50 fell in the range of 500 to 5000 nM.
On to `O=S(=O)(Nc1cccc2cccnc12)N1CCCCC1` [Compound 205, N-(quinolin-8-yl)piperidine-1-sulfonamide], for which the IC50 lay in the range of 500 to 5000 nM.
For `Cc1nccnc1S(=O)(=O)Nc1cccc2cccnc12` [Compound 210, 3-methyl-N-(quinolin-8-yl)pyrazine-2-sulfonamide], the IC50 was < 200 nM.
The value for `O=S(=O)(Nc1cccc2cccnc12)c1ncccc1C1CC1` [Compound 214] was 200 to 500 nM; that for `CN1CCC(S(=O)(=O)Nc2cccc3cccnc23)CC1` [Compound 216, 1-methyl-N-(quinolin-8-yl)piperidine-4-sulfonamide] was 500 to 5000 nM.
The value for `O=S(=O)(Nc1cccc2cccnc12)c1ccc(O)cn1` [Compound 218, 5-hydroxy-N-(quinolin-8-yl)pyridine-2-sulfonamide] was 500 to 5000 nM; that for `O=S(=O)(Nc1cccc2cccnc12)c1ncccc1O` [Compound 219, 3-hydroxy-N-(quinolin-8-yl)pyridine-2-sulfonamide] was 500 to 5000 nM.
Take `COc1cccnc1S(=O)(=O)Nc1cccc2cccnc12` [Compound 223, 3-methoxy-N-(quinolin-8-yl)pyridine-2-sulfonamide]: the IC50 is < 200 nM.
The value for `COc1cccc(S(=O)(=O)Nc2cccc3cccnc23)n1` [Compound 224, 6-methoxy-N-(quinolin-8-yl)pyridine-2-sulfonamide] was 200 to 500 nM; that for `CCn1c(S(=O)(=O)Nc2cccc3cccnc23)nc(C)c1C` [Compound 226, 1-ethyl-4,5-dimethyl-N-(quinolin-8-yl)-1H-imidazole-2-sulfonamide] was < 200 nM; that for `CCn1cccc1S(=O)(=O)Nc1cccc2cccnc12` [Compound 227, 1-ethyl-N-(quinolin-8-yl)-1H-pyrrole-2-sulfonamide] was < 200 nM.
The value for `O=S(=O)(Nc1cccc2cccnc12)c1nccc2ncccc12` [Compound 229, N-(quinolin-8-yl)-1,6-naphthyridine-5-sulfonamide] was < 200 nM; that for `Cc1ccnc(S(=O)(=O)Nc2cccc3cccnc23)c1` [Compound 234, 4-methyl-N-(quinolin-8-yl)pyridine-2-sulfonamide] was < 200 nM; that for `COc1ccc(S(=O)(=O)Nc2cccc3cccnc23)nc1` [Compound 235, 5-methoxy-N-(quinolin-8-yl)pyridine-2-sulfonamide] was < 200 nM.
On to `O=S(=O)(Nc1cccc2cccnc12)c1ccc2ccccc2n1` [Compound 239, N-(quinolin-8-yl)quinoline-2-sulfonamide], for which the IC50 is < 200 nM.
For the compound `CCn1ccnc1S(=O)(=O)Nc1cccc2cccnc12` [Compound 240, 1-ethyl-N-(quinolin-8-yl)-1H-imidazole-2-sulfonamide], the IC50 is < 200 nM.
The value for `CC(C)n1ccnc1S(=O)(=O)Nc1cccc2cccnc12` [Compound 241, 1-isopropyl-N-(quinolin-8-yl)-1H-imidazole-2-sulfonamide] was < 200 nM; that for `O=S(=O)(Nc1cccc2cccnc12)c1ncc[nH]1` [Compound 243, N-(quinolin-8-yl)-1H-imidazole-2-sulfonamide] was 500 to 5000 nM; that for `O=S(=O)(Nc1cccc2cccnc12)c1ccc(-c2ccccc2)cn1` [Compound 244, 5-phenyl-N-(quinolin-8-yl)pyridine-2-sulfonamide] was 500 to 5000 nM.
To `O=S(=O)(Nc1cccc2cccnc12)c1ccc(F)cn1` [Compound 247, 5-fluoro-N-(quinolin-8-yl)pyridine-2-sulfonamide] belongs < 200 nM; to `N#Cc1ccccc1S(=O)(=O)Nc1cccc2cccnc12` [Compound 249, 2-cyano-N-(quinolin-8-yl)benzene-sulfonamide], 200 to 500 nM; to `N#Cc1cccc(S(=O)(=O)Nc2cccc3cccnc23)c1` [Compound 250, 3-cyano-N-(quinolin-8-yl)benzene-sulfonamide], 500 to 5000 nM.
To `Cn1ccnc1S(=O)(=O)Nc1cccc2cccnc12` [Compound 251, 1-methyl-N-(quinolin-8-yl)-1H-imidazole-2-sulfonamide] belongs < 200 nM; to `Cn1nccc1S(=O)(=O)Nc1cccc2cccnc12` [Compound 252, 1-methyl-N-(quinolin-8-yl)-1H-pyrazole-5-sulfonamide], 500 to 5000 nM.
For the compound `Cc1cc(C)cc(S(=O)(=O)Nc2cccc3cccnc23)c1` [Compound 254, 3,5-dimethyl-N-(quinolin-8-yl)benzene-sulfonamide], the IC50 was < 200 nM.
Turning to `Cn1ccc(S(=O)(=O)Nc2cccc3cccnc23)n1` [Compound 255, 1-methyl-N-(quinolin-8-yl)-1H-pyrazole-3-sulfonamide], the IC50 is 200 to 500 nM.
To `CN(c1cccc2cccnc12)S(=O)(=O)c1ccccn1` [Compound 256, N-methyl-N-(quinolin-8-yl)pyridine-2-sulfonamide] belongs 500 to 5000 nM; to `O=S(=O)(Nc1cccc2cccnc12)c1ccc(Cl)cn1` [Compound 259, 5-chloro-N-(quinolin-8-yl)pyridine-2-sulfonamide], 500 to 5000 nM.
